The nature of data set [1]: in vitro. The conditions noted are these: human, liver S9 fraction.
Data set [2] can be described thus: in vitro. The conditions noted are these: mouse, liver S9 fraction.

We go through 1 compound from ChEMBL document CHEMBL5634146, “Discovery of benzimidazole-indazole derivatives as potent FLT3-tyrosine kinase domain mutant kinase inhibitors for acute myeloid leukemia” (Eur J Med Chem, 2023).

Consider `N[C@H]1CC[C@H](NC(=O)c2ccc3[nH]nc(-c4nc5ccc(N6CCOCC6)cc5[nH]4)c3c2)C1`, for which the fraction remaining at 0.5 h in the data set “in vitro [1]” and in the data set “in vitro [2]” was 61% throughout.

As a reminder, the amount remaining is the share of the starting amount still present when the sample was taken. The low end stands for a greater loss, the high end for greater stability.
